A short description of data set [1]: Cytotoxicity against mouse J774.A1 cells assessed as cell viability. It is filed as toxicity, cell-based. The note with it: read-out: TC50 (the source's name).
The target of data set [2] is NACHT, LRR and PYD domains-containing protein 3 (Mus musculus, UniProt Q8R4B8). The experiment in a line: Inhibition of NLRP3 inflammasome in mouse J774.A1 cells assessed as inhibition of IL-1 beta secretion. It is filed as cell-based.
Data set [3] has as its system Mus musculus. The experiment in a line: Anti-inflammatory activity against LPS-induced peritonitis C57BL/6 mouse model assessed as inhibition of IL-1 beta level in peritoneal fluid at 25 to 100 mg/kg, IG by ELISA analysis. The note with it: dose 25-100 mg/kg. It is filed as functional, organism-based.
Data set [4] has as its target NACHT, LRR and PYD domains-containing protein 3 (Mus musculus) (UniProt Q8R4B8). The experiment in a line: Inhibition of NLRP3 inflammasome activation in LPS primed mouse J774.A1 cells assessed as decrease in IL-1 beta production preincubated with compound for 1 hr followed by nigericin stimulation and measured after 1 hr by ELISA method. It is filed as cell-based. To be noted: dose 1-5 µM, time 2.0 hrs.

Data set [5] deals with Mus musculus. The experiment in a line: Anti-inflammatory activity against LPS-induced peritonitis C57BL/6 mouse model assessed as inhibition of IL-1 beta level in serum at 25 to 100 mg/kg, IG by ELISA analysis. It is filed as functional, organism-based. To be noted: dose 25-100 mg/kg.
Data set [6] addresses NACHT, LRR and PYD domains-containing protein 3 (Mus musculus) (UniProt Q8R4B8). The experiment in a line: Inhibition of NLRP3 inflammasome in LPS primed mouse J774.A1 cells assessed as inhibition of caspase-1 maturation at 1 to 5 uM preincubated with compound for 1 hr followed by nigericin stimulation and measured after 1 hr by Western blot analysis. It is filed as cell-based. To be noted: dose 1-5 µM, time 2.0 hrs.

For data set [7], the system named is J774.A1. The experiment in a line: Inhibition of mitochondrial ROS production in LPS/nigericin stimulated mouse J774.A1 cells at 1 to 5 uM pretreated for 1 hr with compound and LPS followed by nigericin treatment for 1 hr by MitoSOX staining based immunofluorescence analysis. To be noted: dose 1-5 µM, time 2.0 hrs. It is filed as functional, cell-based.
Data set [8] deals with NACHT, LRR and PYD domains-containing protein 3 (Mus musculus) (UniProt Q8R4B8). Put plainly: Inhibition of NLRP3 inflammasome activation in LPS primed mouse J774.A1 cells assessed as reduction in cleaved gasdermin-D at 1 to 5 uM preincubated with compound for 1 hr followed by nigericin stimulation and measured after 1 hr by ELISA method. It is filed as cell-based. To be noted: dose 1-5 µM, time 2.0 hrs.

The target is the same in data set [9]. Put plainly: Inhibition of NLRP3 inflammasome activation in LPS primed mouse BMDM cells assessed as decrease in IL-1 beta production preincubated with compound for 1 hr followed by nigericin stimulation and measured after 1 hr by ELISA method. It is filed as cell-based. To be noted: dose 1-5 µM, time 2.0 hrs.
For data set [10] the target is unchanged. The experiment in a line: Inhibition of NLRP3 inflammasome in LPS primed mouse J774.A1 cells assessed as inhibition of IL-1 beta secretion in cell supernatant at 1 to 5 uM preincubated with compound for 1 hr followed by nigericin stimulation and measured after 1 hr by Western blot analysis. It is filed as cell-based. To be noted: dose 1-5 µM, time 2.0 hrs.

The test system of data set [11] is J774.A1. The experiment in a line: Inhibition of intracellular ROS generation in LPS primed mouse J774.A1 cells assessed as decrease in ROS positive cells at 5 uM pretreated for 1 hr followed by nigericin treatment for 1 hr by DCFH-DA staining based fluorescence microscopy (reference value: 52%). It is filed as functional. Set-up: scale not given: the % may be the effect or the level left. The note with it: time 2 hrs.

A further data set relates to NLRP3 inflammasome. Put plainly: Selectivity index, ratio of TC50 for mouse J774.A1 cells to IC50 for NLRP3 inflammasome in mouse J774.A1 cells. It is filed as toxicity, cell-based. To be noted: read-out: Selectivity Index.
Data set [12] deals with NACHT, LRR and PYD domains-containing protein 3 (Mus musculus) (UniProt Q8R4B8). The experiment in a line: Inhibition of NLRP3 inflammasome activation in LPS primed mouse J774.A1 cells assessed as reduction in lactate dehydrogenase at 1 to 5 uM preincubated with compound for 1 hr followed by nigericin stimulation and measured after 1 hr by ELISA method. It is filed as cell-based. To be noted: dose 1-5 µM, time 2.0 hrs.

In data set [13] the test system is J774.A1. Put plainly: Inhibition of intracellular ROS generation in LPS primed mouse J774.A1 cells pretreated for 1 hr followed by nigericin treatment for 1 hr by DCFH-DA staining based fluorescence microscopy. It is filed as functional, cell-based. To be noted: dose 1-5 µM, time 2.0 hrs.
The subject of data set [14] is J774.A1. Put plainly: Inhibition of intracellular ROS generation in LPS primed mouse J774.A1 cells assessed as decrease in ROS positive cells at 1 uM pretreated for 1 hr followed by nigericin treatment for 1 hr by DCFH-DA staining based fluorescence microscopy (reference value: 52%). Set-up: scale not given: the % may be the effect or the level left. The note with it: time 2 hrs. It is filed as functional.

We go through 13 compounds from ChEMBL document CHEMBL5625275, “Design, synthesis and biological evaluation of tanshinone IIA derivatives as NLRP3 inflammasome inhibitors” (Bioorg Med Chem Lett, 2024).

Calls of active or inactive are those of the source. The calls are words filed in the database; no cut-off is given here.

Chain of NACHT, LRR and PYD domains-containing protein 3 (Q8R4B8 whole entry, the tested form may be a part): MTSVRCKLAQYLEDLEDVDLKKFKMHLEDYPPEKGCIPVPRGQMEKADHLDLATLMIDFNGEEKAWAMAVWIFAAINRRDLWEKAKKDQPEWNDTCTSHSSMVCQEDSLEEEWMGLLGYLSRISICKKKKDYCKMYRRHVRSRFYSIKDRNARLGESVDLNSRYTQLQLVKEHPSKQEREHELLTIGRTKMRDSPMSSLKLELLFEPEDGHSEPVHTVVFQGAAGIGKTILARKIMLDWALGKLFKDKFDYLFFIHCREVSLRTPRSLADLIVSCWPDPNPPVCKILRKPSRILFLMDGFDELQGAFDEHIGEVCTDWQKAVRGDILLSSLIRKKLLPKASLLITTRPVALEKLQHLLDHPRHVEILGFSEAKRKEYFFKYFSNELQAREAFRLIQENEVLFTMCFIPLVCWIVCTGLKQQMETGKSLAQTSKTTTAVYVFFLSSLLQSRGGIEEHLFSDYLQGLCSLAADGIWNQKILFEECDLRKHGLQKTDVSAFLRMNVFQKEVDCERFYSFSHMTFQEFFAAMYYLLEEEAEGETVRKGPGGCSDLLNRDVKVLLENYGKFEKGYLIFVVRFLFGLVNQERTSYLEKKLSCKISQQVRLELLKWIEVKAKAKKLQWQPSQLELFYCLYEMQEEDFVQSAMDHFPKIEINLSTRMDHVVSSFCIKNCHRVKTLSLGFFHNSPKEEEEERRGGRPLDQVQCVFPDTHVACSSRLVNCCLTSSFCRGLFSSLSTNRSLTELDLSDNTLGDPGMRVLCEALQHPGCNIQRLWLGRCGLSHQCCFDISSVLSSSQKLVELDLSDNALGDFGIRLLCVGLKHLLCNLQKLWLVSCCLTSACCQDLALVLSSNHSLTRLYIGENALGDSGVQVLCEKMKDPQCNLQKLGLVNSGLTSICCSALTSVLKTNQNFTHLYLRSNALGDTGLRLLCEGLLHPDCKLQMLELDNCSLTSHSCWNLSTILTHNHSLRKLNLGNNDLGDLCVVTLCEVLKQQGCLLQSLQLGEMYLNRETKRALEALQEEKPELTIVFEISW
Chain of NACHT, LRR and PYD domains-containing protein 3 (Mus musculus) (Q8R4B8 whole entry, the tested form may be a part): as above

In the case of `Cc1coc2c1C(=O)C(=O)c1c-2ccc2c1C(OC(=O)c1cc(Cl)ccc1Cl)CCC2(C)C` (centres undefined), the CC50 in [1] was 19.7 µM. Further, the half-maximal inhibitory concentration (IC50) in data set [2] amounted to 3.6 µM.
As for `Cc1coc2c3ccc4c(c3c3ocnc3c12)CCCC4(C)C`, the CC50 in data set [1] was more than 100 µM. In data set [2], the IC50 is more than 40 µM.
`Cc1coc2c1C(=O)C(=O)c1c-2ccc2c1C(OC(=O)CCCCC1CCSS1)CCC2(C)C` (centres undefined): in data set [1], the CC50 came to 26.8 µM. Further, the 50% inhibitory concentration (IC50) in [2] worked out at 1.27 µM.
On to `Cc1c(Br)oc2c1C(=O)C(=O)c1c-2ccc2c1CCCC2(C)C`, for which the CC50 in [1] was more than 100 µM. In addition, in [2], the 50% inhibitory concentration (IC50) was found to be 5.21 µM.
The matching figures for `Cc1coc2c1C(=O)C(=O)c1c-2ccc2c1CCCC2(C)C` [TANSHINONE IIA]: more than 100 µM and 5.15 µM.
Turning to `Cc1coc2c1C(=O)C(=O)c1c-2ccc2c1C=CCC2(C)C`, in [1], the CC50 amounted to 61.8 µM. The 50% inhibitory concentration (IC50) in [2] was determined as 0.61 µM.
`Cc1c(-c2ccccc2)oc2c1C(=O)C(=O)c1c-2ccc2c1CCCC2(C)C`: the CC50 in [1] is more than 100 µM. Also, the concentration for half-maximal inhibition (IC50) in [2] was more than 40 µM.
With `COc1cc(/C=C/C(=O)OC2CCC(C)(C)c3ccc4c(c32)C(=O)C(=O)c2c(C)coc2-4)cc(OC)c1OC` (centres undefined), the CC50 in data set [1] was 60.2 µM. The IC50 in data set [2] was 9.11 µM.
With `Cc1c(S(=O)(=O)O)oc2c1C(=O)C(=O)c1c-2ccc2c1CCCC2(C)C` [TANSHINONE IIA SULFONIC ACID], the CC50 in [1] is more than 100 µM. Moreover, the IC50 in data set [2] worked out at 4.3 µM.
Turning to `Cc1coc2c1C(=O)C(=O)c1c-2ccc2c1C(OC(=O)c1ccc(O)cc1)CCC2(C)C` (centres undefined), the CC50 in data set [1] came out at 14.5 µM. Besides, the half-inhibitory concentration (IC50) in data set [2] was 2.57 µM.
Regarding `CC(=O)OC1CCC(C)(C)c2ccc3c(c21)C(=O)C(=O)c1c(C)coc1-3` (centres undefined), in data set [1], the CC50 turned out to be 36.5 µM. In addition, the concentration for half-maximal inhibition (IC50) in data set [2] was 1.25 µM.
Consider `Cc1coc2c1C(=O)C(=O)c1c-2ccc2c1C(OC(=O)c1cccc(O)c1)CCC2(C)C` (centres undefined), for which, in data set [1], the CC50 is 18.2 µM. Further, the 50% inhibitory concentration (IC50) in data set [2] amounted to 5.53 µM.
Turning to `Cc1coc2c1C(=O)C(=O)c1c-2ccc2c1C(OC(=O)c1ccccc1O)CCC2(C)C` (centres undefined), the result in the data set with Mus musculus [3] and in the data set with Mus musculus [5] was Active. Besides, the inhibition result (in data set [4]; in data set [9]; in the data set with J774.A1 [13]) was “Dose-Dependent Effect” each time. In addition, the inhibition entry (in data set [6]; in the data set on J774.A1 [7]; in data set [8]; in [10]; in data set [12]) was “Active” in each case. In data set [1], the CC50 stood at 30.8 µM. Further, the Activity with J774.A1 [11] worked out at 56%; with J774.A1 [14] it was 60%. Further, the selectivity ratio in the data set on NLRP3 inflammasome amounted to 62.1. In [2], the 50% inhibitory concentration (IC50) is 0.48 µM.
